{"source": "patent US20230248847A1", "about": "“MULTIFUNCTIONAL NANOPARTICLES FOR THERAGNOSIS” (priority 2018, published 2023)", "key": {"[1]": {"test_system": "orthotopic xenograft tumours of MDA-MB-231 breast cancer cell line", "assay": "In vivo therapeutic efficacy, orthotopic MDA-MB-231 breast cancer xenograft", "design": "species or system NSG mice", "quoted_text": "An orthotopic xenotransplantation of the triple-negative human MDA-MB-231 breast cancer cell line was performed in immunocompromised female NSG mice. The mice (5 per group) were divided into 3 groups and treated according to the protocol approved by the Institutional Animal Care and Use Committee (IACUC) of the University of Granada and the Regional Government of Andalusia according to the European Directive on the protection of animals used for scientific purposes (2010/63/EU) and Spanish law (Royal Decree 53/2013). […]"}, "[2]": {"assay": "In vivo toxicity assays (survival, external signs, weight, motor activity)", "design": "species or system NSG mice", "details": "for external side effects observed: intravenous every 3 days", "procedure": "All the in vivo experiments were performed in NOD scid gamma mice (NSG, NOD.Cg-Prkdcscid II2rgtmlWjl/SzJ). The animal wellbeing and experimental methods were carried out according to institutional guidelines (Research Ethics Committee of University of Granada, Spain) and international guidelines (European Community Council Directive 86/609). All the animals (n=5 per group) were kept in a micro-ventilated cage system with a 12-h light/darkness cycle, and handled in a laminar flow cabinet to maintain the specific pathogen-free conditions. To establish orthotopic xenograft tumours, female mice six to eight weeks of age were used. The mice were anaesthetised by means of the inhalation of isoflurane and tumours were generated in the right breast by means of subcutaneous injections of 5×10^5 cells/mouse mixed with Corning® Matrigel® Matrix and with 26-gauge needles. The intravenous administration of PBS (control), free DOX, and NPs in the tail vein of the mice was performed every three days for a period of 43 days, as was the fluorescence evaluation by means of IVIS® (Perkin Elmer). Tumour growth was evaluated twice a week with a digital calibrator and tumour volume was calculated by means of the formula V=(length) 2×width×π/6. The weight of the mice was also measured every three days. The endpoint of the experiment was day 44. […] During that month, the fluorescence of the mice was analyzed in IVIS® once a week. Lastly, the mice were sacrificed by cervical dislocation and the tumours were extirpated, photographed, and analyzed by means of IVIS®.\nIn another assay, a series of experiments were carried out to control the in vivo toxicity of the treatment. […] The percentage of survival (FIG. 12) during the treatment period was 100% both for mice treated with NPs and for controls. However, treatment with DOX caused a high impact on survival. After 30 days of treatment, there was a drastic decrease in the percentage of survival (30%). This effect could be attributed to the inherent systemic toxicity of this anti-tumour drug and to the serious side effects of this conventional chemotherapy treatment.\nFurthermore, in order to observe the toxic effect of the treatment at the central nervous system level, a standardised protocol for testing movement was carried out on day 30 in a cage with a camera prepared for this purpose. This camera analyzes the distance the mouse travels in 24 hours."}}, "data": [{"compound": "COc1cccc2c1C(=O)c1c(O)c3c(c(O)c1C2=O)C[C@@](O)(C(=O)CO)C[C@@H]3O[C@H]1C[C@H](N)[C@H](O)[C@H](C)O1", "note": "[doxorubicin]", "values": [{"measurement": "histological analysis of xenograft tumour tissues (cellularity)", "setting": "[1]; haematoxylin/eosin and DAPI staining after treatment, vs control group", "value": "cellularity decreased significantly"}, {"measurement": "therapeutic effect on tumour growth / tumour volume", "setting": "[1]; intravenous every 3 days for 43 days, NSG mice, n=5 per group, vs PBS", "value": "significant inhibition of tumour growth"}, {"measurement": "time after which inhibition of tumour growth was significant", "setting": "[1]; intravenous every 3 days, NSG mice", "value": 3, "unit": "weeks"}, {"measurement": "external side effects observed", "setting": "[2]; NSG mice, listed as DOX", "value": "high cutaneous toxicity caused in the tail"}, {"measurement": "external side effects observed", "setting": "[2]; NSG mice, listed as free DOX", "value": "weight loss, goose bumps, behaviour disorders, and damaged tail"}, {"measurement": "percentage of survival", "setting": "[2]; after 30 days of treatment, NSG mice", "value": 30, "unit": "%"}, {"measurement": "weight of mice during treatment", "setting": "[2]; compared with untreated control mice or mice treated with theranostic NPs", "value": "significant weight reduction"}, {"measurement": "motor activity (distance travelled in 24 hours)", "setting": "[2]; day 30, cage with camera", "value": "significant decrease in mouse mobility"}]}]}
